In patent US5602102A, “Dipeptidyl peptidase-I inhibitors and uses thereof” (Board of Regents, The Univ. of TX System, priority 1992, dated 1997):
Like-named read-outs stand apart in the source and are kept apart here. *1 amine or outer side, *2 acyl side, *3 side chain or, on linkers, in order; H or OH if unused. Where a SMILES comes first, the peptide text is derived from it. The star is where a group is joined. pNA = O=[N+]([O-])c1ccc(N*)cc1; AMC = Cc1cc(=O)oc2cc(N*)ccc12; Suc = O=C(CCC(=O)[*:2])[*:1]; βNA = c1ccc2cc(N*)ccc2c1; Cbz = O=C(OCc1ccccc1)*

Columns and labels:
[1] = molecular target: T1, human dipeptidyl peptidase-I (Homo sapiens, UniProt P53634); test: Effect of protease inhibitors on DPPI activity (purified enzyme); assay type: biochemical; parameters: Human DPPI is now established to constitute a 200,000 Da glycoprotein with 24,000 Da subunits; from tissue; host or cells: human cadaveric spleen
Experimental: Note. Purified human dipeptidyl peptidaseI (0.4 μg) was preincubated
with each of the inhibitors at the stated concentration for 15 min at
37° C.. Each sample was diluted 3fold with assay buffer containing
substrate and incubated for an additional 20 min.
Target sequence in this assay (P53634 231-394 limits assumed): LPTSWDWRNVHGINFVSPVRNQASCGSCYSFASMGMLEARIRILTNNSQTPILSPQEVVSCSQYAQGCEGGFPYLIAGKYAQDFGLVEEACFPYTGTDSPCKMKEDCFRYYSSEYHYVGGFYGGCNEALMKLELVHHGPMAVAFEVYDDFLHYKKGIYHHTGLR
Target sequence in this assay (P53634 25-134 limits assumed): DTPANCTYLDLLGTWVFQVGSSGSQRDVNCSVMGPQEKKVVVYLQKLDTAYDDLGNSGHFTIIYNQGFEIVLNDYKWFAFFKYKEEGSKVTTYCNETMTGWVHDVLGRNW
Target sequence in this assay (P53634 395-463 limits assumed): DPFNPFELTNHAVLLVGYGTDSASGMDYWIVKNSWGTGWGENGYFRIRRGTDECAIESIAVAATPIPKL

[2] = molecular target: DPPI (Homo sapiens, UniProt P53634); test: Substrate specificity of human DPPI: hydrolysis of synthetic peptide substrates; assay type: biochemical; parameters: Human DPPI is now established to constitute a 200,000 Da glycoprotein with 24,000 Da subunits; from tissue; host or cells: human cadaveric spleen; unit not given here
Text: The specificity of human DPPI was studied using a variety of synthetic peptide substrates. These substrates appear in Table 5.
Substrates with blocked amino-termini, with proline at the P1 position, arginine at the P2, or containing only single amino acids, were not hydrolyzed. […] The amino-terminal sequence of bovine α-casein, Arg--Pro, prohibits the processive cleavage of amino-terminal dipeptides from this protein and therefore should increase the ability to specifically detect endoproteolytic activity, if present.

[3] = tested on: NK cells; test: Depletion of NK cells by dipeptide esters; assay type: cell-based
[4] = molecular target: T1, human dipeptidyl peptidase-I
[5] = molecular target: murine granzyme A proenzyme (murine) (UniProt P11032); conditions: scale: Δabsorbance410/hour per cells
[6] = inhibitor 1 mM, preincubated 15 min at 37° C., read-out: Percentage control activity
[7] = inhibitor 1 mM, preincubated 15 min at 37° C.

DPPI, sequence (P53634 231-394 limits assumed): as the sequence (P53634 231-394 limits assumed) above
DPPI, sequence (P53634 25-134 limits assumed): as the sequence (P53634 25-134 limits assumed) above
DPPI, sequence (P53634 395-463 limits assumed): as the sequence (P53634 395-463 limits assumed) above

hydrolysis of substrate peptide by human DPPI ([2]; substrate concentration 100 μM) | hydrolysis of substrate peptide by human DPPI ([2]; substrate concentration 500 μM) | Compound | further results
 |  | c1cnc2c(c1)ccc1cccnc12 [1,10-Phenanthroline] | remaining activity at 1000 µM [1, 6]: 98%
 |  | c1ccc(SSc2ccccn2)nc1 [2,2'-Dithiodipyridine] | remaining activity at 400 µM ([1]; inhibitor 400 μM, preincubated 15 min at 37° C., read-out: Percentage control activity): 9%; effect on DPPI activity (in words) ([1]; screening conditions pH 5.5): inhibited
120 | 120 | CC(N)C(=O)NC(C)C(=O)NC(C(=O)NC(C)C(=O)Nc1ccc([N+](=O)[O-])cc1)C(C)C (stereo not drawn) [Ala-Ala-Val-Ala-pNA] (H-AAVA-pNA; configuration not given here) | 
380 | 1000 | C[C@H](N)C(=O)N[C@@H](C)C(=O)Nc1ccc([N+](=O)[O-])cc1 [Ala-Ala-pNA] (H-Ala-Ala-pNA) | 
0 | 0 | C[C@H](N)C(=O)Nc1ccc2ccccc2c1 [Ala-βNA] | 
0 | 0 | N=C(N)NCCC[C@H](NC(=O)[C@@H](N)CCCNC(=N)N)C(=O)Nc1ccc2ccccc2c1 [Arg-Arg-βNA] (H-Arg-Arg-βNA) | 
0 | 0 | NC(N)=NCCC[C@H](N)C(=O)Nc1ccc2ccccc2c1 [Arg-βNA] | 
250 | 1000 | C[C@H](NC(=O)[C@@H](N)CC(=O)O)C(=O)Nc1ccc2ccccc2c1 [Asp-Ala-βNA] (H-Asp-Ala-βNA) | 
 |  | CC(C)C[C@H](NC(=O)[C@@H](O)[C@H](N)Cc1ccccc1)C(=O)O [Bestatin] | remaining activity at 500 µg/mL ([1]; inhibitor 500 μg/ml, preincubated 15 min at 37° C., read-out: Percentage control activity): 103%; effect on DPPI activity (in words) ([1]; screening conditions pH 5.5): no effect
0 | 0 | NC(N)=NCCC[C@H](NC(=O)OCc1ccccc1)C(=O)N[C@@H](CCCN=C(N)N)C(=O)Nc1ccc2ccccc2c1 [CBZ-Arg-Arg-βNA] (Cbz-Arg-Arg-βNA) | 
0 | 0 | N=C(N)NCCCC(NC(=O)OCc1ccccc1)C(=O)Nc1ccc2ccccc2c1 (stereo not drawn) [CBZ-Arg-βNA] | 
0 | 0 | Cc1cc(=O)oc2cc(NC(=O)[C@H](CCCN=C(N)N)NC(=O)[C@@H]3CCCN3C(=O)CNC(=O)OCc3ccccc3)ccc12 [CBZ-Gly-Pro-Arg-AMC] (Cbz-Gly-Pro-Arg-{AMC}) | 
0 | 0 | Cc1cc(=O)oc2cc(NC(=O)C(CCCCN)NC(=O)OCc3ccccc3)ccc12 (stereo not drawn) [CBZ-Lys-AMC] | 
0 | 0 | O=C(NC(Cc1ccccc1)C(=O)Nc1ccc2ccccc2c1)OCc1ccccc1 (stereo not drawn) [CBZ-Phe-βNA] | 
0 | 0 | COc1cc(NC(=O)[C@H](CCCN=C(N)N)NC(=O)[C@H](CC(C)C)NC(=O)[C@@H](NC(=O)OCc2ccccc2)C(C)C)cc2ccccc12 [CBZ-Val-Leu-Arg-MNA] | 
2500 | 4750 | COc1cc(NC(=O)C(CCCN=C(N)N)NC(=O)CN)cc2ccccc12 (stereo not drawn) [Gly-Arg-MNA] | 
3500 | 6120 | Cc1cc(=O)oc2cc(NC(=O)[C@H](Cc3ccccc3)NC(=O)CN)ccc12 [Gly-Phe-AMC] (H-Gly-Phe-{AMC}) | 
3500 | 5750 | COc1cc(NC(=O)C(Cc2ccccc2)NC(=O)CN)cc2ccccc12 (stereo not drawn) [Gly-Phe-MNA] | 
120 | 380 | NCC(=O)N[C@@H](Cc1ccccc1)C(=O)Nc1ccc([N+](=O)[O-])cc1 [Gly-Phe-pNA] (H-Gly-Phe-pNA) | 
2380 | 4380 | NCC(=O)N[C@@H](Cc1ccccc1)C(=O)Nc1ccc2ccccc2c1 [Gly-Phe-βNA] (H-Gly-Phe-βNA) | 

hydrolysis of substrate peptide by human DPPI ([2]; substrate concentration 100 μM) | hydrolysis of substrate peptide by human DPPI ([2]; substrate concentration 500 μM) | Compound | further results
0 | 0 | COc1cc(NC(=O)[C@@H]2CCCN2C(=O)CN)cc2ccccc12 [Gly-Pro-MNA] | 
0 | 0 | NCC(=O)N1CCC[C@H]1C(=O)Nc1ccc2ccccc2c1 [Gly-Pro-βNA] (H-Gly-Pro-βNA) | 
0 | 0 | NCC(=O)Nc1ccc2ccccc2c1 [Gly-βNA] | 
 |  | O=C(O)CI [Iodoacetic acid] | effect on DPPI activity (in words) ([1]; pH 5.5): potently inhibited; remaining activity at 1000 µM ([1]; read-out: Percentage control activity): 10%
0 | 0 | CC(C)C[C@H](N)C(=O)Nc1ccc2ccccc2c1 [Leu-βNA] | 
 |  | COC([CH2][Hg+])CNC(=O)c1ccccc1OCC(=O)O.[OH-] (stereo not drawn) [Mersalyl acid] | Percentage control activity [1, 7]: 3%; effect on DPPI activity (in words) ([1]; screening conditions pH 5.5): potently inhibited
 |  | CCN1C(=O)C=CC1=O [N-Ethylmaleimide] | remaining activity at 1000 µM [1, 6]: 63%; effect on DPPI activity (in words) ([1]; screening conditions pH 5.5): inhibited
0 | 0 | N[C@@H](Cc1ccccc1)C(=O)Nc1ccc2ccccc2c1 [Phe-βNA] | 
0 | 0 | Cc1cc(=O)oc2cc(NC(=O)[C@H](CCCN=C(N)N)NC(=O)[C@H](Cc3ccccc3)NC(=O)[C@@H]3CCCN3)ccc12 [Pro-Phe-Arg-AMC] (H-Pro-Phe-Arg-{AMC}) | 
0 | 0 | O=C(Nc1ccc2ccccc2c1)[C@@H]1CCCN1 [Pro-βNA] | 
1000 | 1750 | COc1cc(NC(=O)C(Cc2ccc(O)cc2)NC(=O)C(N)CO)cc2ccccc12 (stereo not drawn) [Ser-Tyr-MNA] | 
1750 | 2000 | N[C@@H](CO)C(=O)N[C@@H](Cc1ccc(O)cc1)C(=O)Nc1ccc2ccccc2c1 [Ser-Tyr-βNA] (H-Ser-Tyr-βNA) | 
0 | 0 | C[C@H](NC(=O)CCC(=O)O)C(=O)N[C@@H](C)C(=O)N[C@@H](C)C(=O)Nc1ccc([N+](=O)[O-])cc1 [Suc-Ala-Ala-Ala-pNA] | 
0 | 0 | C[C@H](NC(=O)CCC(=O)O)C(=O)N[C@@H](C)C(=O)N1CCC[C@H]1C(=O)N[C@@H](Cc1ccccc1)C(=O)Nc1ccc([N+](=O)[O-])cc1 [Suc-Ala-Ala-Pro-Phe-pNA] (Suc-AAPF-pNA) | 
 |  | Cc1ccc(S(=O)(=O)NC(CCCCN)C(=O)CCl)cc1 (stereo not drawn) [TLCK, 1-chloro-3-tosylamido-7-amino-2-heptanone] | Percentage control activity [1, 7]: 5%; effect on DPPI activity (in words) ([1]; screening conditions pH 5.5): potently inhibited
 |  | CC(C)C[C@H](NC(=O)[C@@H](N)CC(C)C)C(=O)OCc1ccccc1 [benzyl ester derivative of Leu--Leu--OMe] | more potent than Leu--Leu--OMe in mediating depletion of NK cells [3]: 5 fold
 |  | CCCC[C@H](NC(=O)[C@@H](N)CCCC)C(=O)OC [norleucyl-norleucine methyl ester] | more active than Leu--Leu--OMe [3]: 2 fold
 |  | Cystatin [listing 1 of 2 here] | Percentage control activity ([1]; inhibitor 50 μg/ml, preincubated 15 min at 37° C.): 32%; effect on DPPI activity (in words) ([1]; screening conditions pH 5.5): potently inhibited
 |  | Cystatin [listing 2 of 2 here] | Percentage control activity of purified human DPPI (% of control activity (at 50 µg/ml)) [4]: 32
 |  | murine dipeptidyl peptidase-I (from UniProt P97821) (enzyme) | generation of BLT esterase activity in murine alloreactive CD8(+) T cells with DPPI inhibited [5]: 3.3
